According to patent US20260001928A1 (CORTERIA PHARMACEUTICALS, priority 2022, published 2026):
*1 amine or outer side, *2 acyl side, *3 side chain or, on linkers, in order; H or OH if unused. Where a SMILES comes first, the peptide text is derived from it. Side-chain parts run from the residue outwards. [ ]: non-standard residue; d: D form. The star is where a group is joined. C18 diacid = O=C(O)CCCCCCCCCCCCCCCCC(=O)*; C16 diacid = O=C(O)CCCCCCCCCCCCCCC(=O)*; γGlu = O=C(O)[C@H](CCC(=O)[*:2])N[*:1]; NMeI = CC[C@H](C)[C@H](NC)C(=O)O; αMeK = C[C@](N)(CCCCN)C(=O)O; Abu = CC[C@H](N)C(=O)O; AEEA = NCCOCCOCC(=O)O; Aib = CC(C)(N)C(=O)O

What was measured:
human CRF2a receptor = biological target: T1, human CRF2a receptor (Homo sapiens, UniProt Q13324); experiment: Activity at human CRF2a receptor, cAMP functional assay in TeloHEAC cells; format: cell-based; conditions: TeloHEAC cells stably expressing human CRF2a receptor, relative to urocortin 2 (100 nM = 100%)
T1 construct: expressed in transfected cells; host or cells: TeloHEAC cells
T1 sequence (Q13324 1-411): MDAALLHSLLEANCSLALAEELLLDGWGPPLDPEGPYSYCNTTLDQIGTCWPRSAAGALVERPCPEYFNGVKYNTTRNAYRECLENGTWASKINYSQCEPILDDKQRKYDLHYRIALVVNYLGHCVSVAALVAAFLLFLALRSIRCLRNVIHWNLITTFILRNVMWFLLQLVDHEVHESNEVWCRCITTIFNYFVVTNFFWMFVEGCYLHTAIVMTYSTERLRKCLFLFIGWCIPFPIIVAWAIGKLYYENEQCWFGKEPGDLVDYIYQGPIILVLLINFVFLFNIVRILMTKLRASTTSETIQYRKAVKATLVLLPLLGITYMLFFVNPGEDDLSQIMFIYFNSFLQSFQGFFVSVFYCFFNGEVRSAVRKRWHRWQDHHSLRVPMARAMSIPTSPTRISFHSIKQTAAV
Summary of the method: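 cAMP accumulation was measured by HTRF 665/620 nm ratio after 30 min at 37° C compound exposure (16 twofold dilutions) of CRF2a-expressing TeloHEAC cells, 10000/well, in HEPES-buffered HBSS plus IBMX. Activity was normalised to urocortin 2 at 100 nM (100%), and EC50 was the concentration giving half-maximal activation.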

CFR1R receptor = biological target: T2, CFR1R receptor (Homo sapiens, UniProt P34998); experiment: Activity at anti-target CFR1R receptor, cAMP assay in CRF1R-overexpression CHO-K1 cells; format: cell-based; conditions: 100% = Sauvagine at 100 nM; for EC50: cAMP
T2 construct: host or cells: CHO-K1 (clone 2)
T2 sequence (P34998 24-415): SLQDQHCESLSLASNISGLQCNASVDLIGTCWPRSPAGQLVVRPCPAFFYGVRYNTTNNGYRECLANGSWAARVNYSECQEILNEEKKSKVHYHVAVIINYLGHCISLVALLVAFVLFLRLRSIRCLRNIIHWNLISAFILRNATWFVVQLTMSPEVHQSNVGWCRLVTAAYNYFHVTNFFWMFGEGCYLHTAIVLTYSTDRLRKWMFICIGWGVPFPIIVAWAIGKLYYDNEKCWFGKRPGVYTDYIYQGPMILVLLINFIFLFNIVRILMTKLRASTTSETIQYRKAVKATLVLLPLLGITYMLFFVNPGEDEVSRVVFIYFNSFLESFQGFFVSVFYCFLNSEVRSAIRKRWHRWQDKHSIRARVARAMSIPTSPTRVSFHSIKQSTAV
Summary of the method: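 The method mirrors that used with TeloHAEC cells. Here, thawed clone 2 cells seeded at 4000 cells/well are tested, and 100 nM Sauvagine sets the top of the activation scale.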

[1] = Chemical stability in buffer (pH 7.4 / pH 4.5), % purity loss; format: physicochemical; conditions: 40° C. vs 5° C., 14 or 28 days; for Buffer stability pH 4.5 % purity loss: 100 mM acetate buffer pH 4.5; for Buffer stability pH 7.4 % purity loss: 100 mM phosphate buffer pH 7.4
Experimental: Solubility and chemical stability were studied in 100 mM phosphate buffer (pH 7.4) and 100 mM acetate buffer (pH 4.5). Test compound powders were dissolved in both buffers at a target concentration of 10 mg/mL and incubated for 1 hour at room temperature. After centrifugation at 2500 rcf for 15 minutes, 10 μL of supernatant was diluted with 190 μL of the incubation buffer and analyzed by LC-UV (Acquity UPLC-DAD, Waters). Solubility was calculated by comparing the peak area of the test compound in the buffer sample with the peak area of the same compound dissolved at 0.5 mg/mL in water:acetonitrile 1:1, 0.1% formic acid.
From the centrifuged supernatant, two additional 80 μL aliquots were collected and diluted with 160 μL of incubation buffer. One aliquot was stored at 5° C., while the other was stored at 40° C. After 14 or 28 days, the samples were analyzed by LC-UV. Chemical stability was calculated as % loss using the following equations: […]

Sprague Dawley rats = experiment: Effect on systolic blood pressure, telemetry in Sprague Dawley rats; format: in vivo, rat; conditions: 0.1 mg/kg SC
Experimental: The effect of the compounds on systolic blood pressure was determined in telemetry studies in Sprague Dawley rats at a dosage of 0.1 mg/kg SC.
The rats were previously implanted with a telemetry device (DSI, Saint-Paul, USA, HD-S10, HD-S11 or HD S21) and allowed to recover for a minimum period of 2 weeks before treatment with vehicle or the different peptides. Blood pressure (BP) was recorded through a catheter inserted into the abdominal aorta. The device body was placed in the abdomen. The animals were allowed to recover from surgery for at least 10 days before the first administration of test drug or vehicle.
The chronically instrumented rats of the telemetry studies were individually housed immediately after surgery and then housed in pairs with a non-instrumented companion after recovery.
Systolic blood pressure was recorded for one hour before treatment (basal period). Thereafter, the subcutaneous administration of the test compound or its vehicle was performed, under continuous recording of the signal up to 48 hours, analysed and expressed as % change from baseline.
Representative data are presented in Table 13 below, in which “Duration of action” indicates the last time point for which an effect on BP was still observed (n=2 animals/peptide)

## CC[C@H](C)[C@H](NC)C(=O)N[C@H](C(=O)N[C@@H](CC(C)C)C(=O)N[C@@H](CO)C(=O)N[C@@H](CC(C)C)C(=O)N[C@@H](CC(=O)O)C(=O)N[C@@H](C(=O)N1CCC[C@H]1C(=O)N[C@H](C(=O)N[C@@H](CCCCN)C(=O)N[C@@H](CC(C)C)C(=O)N[C@@H](CCCCNC(=O)CC[C@H](NC(=O)CCCCCCCCCCCCCCC(=O)O)C(=O)O)C(=O)N[C@@H](CCCCN)C(=O)N[C@H](C(=O)N[C@@H](CC(C)C)C(=O)N[C@@H](CC(C)C)C(=O)N[C@@H](CCC(=O)O)C(=O)N[C@@H](CCC(N)=O)C(=O)N[C@@H](CCC(=O)O)C(=O)N[C@@H](CCCCN)C(=O)N[C@@H](CCC(N)=O)C(=O)N[C@@H](CCCCN)C(=O)N[C@@H](CCCCN)C(=O)N[C@@H](CCC(N)=O)C(=O)N[C@@H](CCCNC(=N)N)C(=O)N[C@@H](CCC(=O)O)C(=O)N[C@@H](CCC(N)=O)C(=O)N[C@@H](C)C(=O)N[C@@H](CCC(=O)O)C(=O)N[C@H](C(=O)N[C@@H](CC(N)=O)C(=O)NC(C)(C)C(=O)N[C@@H](CCC(N)=O)C(=O)N[C@H](C(=O)N[C@@H](CC(C)C)C(=O)N[C@@H](C)C(=O)N[C@@H](CCC(N)=O)C(=O)N[C@H](C(N)=O)C(C)C)[C@@H](C)CC)[C@@H](C)O)[C@@H](C)CC)[C@@H](C)CC)C(C)C)C(C)C [compound 64] (H-[NMeI]VLSLD[dV]PIKLK([γGlu-C16 diacid])KILLEQEKQKKQREQAETN[Aib]QILAQV-NH2)
Human CRF2a receptor
  EC50: 0.19 nM
CFR1R receptor
  Emax (% I): 4 % I
  EC50: > 250 nM
[1]
  Buffer stability pH 4.5 % purity loss: nd/0 ^ %
Sprague Dawley rats; 8 h, n=2
  Systolic blood pressure (Mean) % change from baseline, 8 h: −25%
Sprague Dawley rats; 12 h, n=2
  Systolic blood pressure (Mean) % change from baseline, 12 h: −13%
Sprague Dawley rats; 24 h, n=2
  Systolic blood pressure (Mean) % change from baseline, 24 h: 3%
Sprague Dawley rats; last time point with an effect on BP still observed
  Duration of action: 23 h

## CC[C@H](NC(=O)[C@H](CC(N)=O)NC(=O)[C@@H](NC(=O)[C@H](CCC(=O)O)NC(=O)[C@H](C)NC(=O)[C@H](CCC(N)=O)NC(=O)[C@H](CCC(=O)O)NC(=O)[C@H](CCCNC(=N)N)NC(=O)[C@H](CCC(N)=O)NC(=O)[C@H](CCCCN)NC(=O)[C@H](CCCCN)NC(=O)[C@H](CCC(N)=O)NC(=O)[C@H](CCCCN)NC(=O)[C@H](CCC(=O)O)NC(=O)[C@H](CCC(N)=O)NC(=O)[C@H](CCC(=O)O)NC(=O)[C@H](CC(C)C)NC(=O)[C@H](CC(C)C)NC(=O)[C@@H](NC(=O)[C@H](CCCCN)NC(=O)[C@H](CCCCNC(=O)COCCOCCNC(=O)COCCOCCNC(=O)CC[C@H](NC(=O)CCCCCCCCCCCCCCCCC(=O)O)C(=O)O)NC(=O)[C@H](CC(C)C)NC(=O)[C@H](CCCCN)NC(=O)[C@@H](NC(=O)[C@@H]1CCCN1C(=O)[C@H](NC(=O)[C@H](CC(=O)O)NC(=O)[C@H](CC(C)C)NC(=O)[C@H](CO)NC(=O)[C@H](CC(C)C)NC(=O)[C@@H](NC(=O)[C@@H](NC(C)=O)[C@@H](C)CC)C(C)C)C(C)C)[C@@H](C)CC)[C@@H](C)CC)[C@@H](C)O)C(=O)N[C@@H](CCC(N)=O)C(=O)N[C@H](C(=O)N[C@@H](CC(C)C)C(=O)N[C@@H](C)C(=O)N[C@@H](CCC(N)=O)C(=O)N[C@H](C(N)=O)C(C)C)[C@@H](C)CC [compound 104] (Ac-IVLSLD[dV]PIKLK([AEEA-AEEA-γGlu-C18 diacid])KILLEQEKQKKQREQAETN[Abu]QILAQV-NH2)
Human CRF2a receptor
  EC50: 0.47 nM
CFR1R receptor
  Emax (% I): 5 % I
  EC50: > 250 nM
[1]
  Buffer stability pH 4.5 % purity loss: 0/0 ^ %
  Buffer stability pH 7.4 % purity loss: 0/0 ^ %

## CC[C@H](C)[C@H](NC(C)=O)C(=O)N[C@H](C(=O)N[C@@H](CC(C)C)C(=O)N[C@@H](CO)C(=O)N[C@@H](CC(C)C)C(=O)N[C@@H](CC(=O)O)C(=O)N[C@@H](C(=O)N1CCC[C@H]1C(=O)N[C@H](C(=O)N[C@@H](CCCCN)C(=O)N[C@@H](CC(C)C)C(=O)N[C@@H](CCCCNC(=O)CC[C@H](NC(=O)CCCCCCCCCCCCCCC(=O)O)C(=O)O)C(=O)N[C@@H](CCCCN)C(=O)N[C@H](C(=O)N[C@@H](CC(C)C)C(=O)N[C@@H](CC(C)C)C(=O)N[C@@H](CCC(=O)O)C(=O)N[C@@H](CCC(N)=O)C(=O)N[C@@H](CCC(=O)O)C(=O)N[C@@H](CCCCN)C(=O)N[C@@H](CCC(N)=O)C(=O)N[C@@H](CCCCN)C(=O)N[C@@H](CCCCN)C(=O)N[C@@H](CCC(N)=O)C(=O)N[C@@H](CCCNC(=N)N)C(=O)N[C@@H](CCC(=O)O)C(=O)N[C@@H](CCC(N)=O)C(=O)N[C@@H](C)C(=O)N[C@@H](CCC(=O)O)C(=O)N[C@H](C(=O)N[C@@H](CC(N)=O)C(=O)N[C@@](C)(CCCCN)C(=O)N[C@@H](CCC(N)=O)C(=O)N[C@H](C(=O)N[C@@H](CC(C)C)C(=O)N[C@@H](C)C(=O)N[C@@H](CCC(N)=O)C(=O)N[C@H](C(N)=O)C(C)C)[C@@H](C)CC)[C@@H](C)O)[C@@H](C)CC)[C@@H](C)CC)C(C)C)C(C)C [compound 54] (Ac-IVLSLD[dV]PIKLK([γGlu-C16 diacid])KILLEQEKQKKQREQAETN[αMeK]QILAQV-NH2)
Human CRF2a receptor
  EC50: 0.12 nM
CFR1R receptor
  Emax (% I): 20 % I
  EC50: > 250 nM
[1]
  Buffer stability pH 4.5 % purity loss: nd/0 ^ %

## CC[C@H](C)[C@H](NC(=O)[C@H](CCC(N)=O)NC(=O)[C@H](CCCCN)NC(=O)[C@H](CC(N)=O)NC(=O)[C@@H](NC(=O)[C@H](CCC(=O)O)NC(=O)[C@H](C)NC(=O)[C@H](CCC(N)=O)NC(=O)[C@H](CCC(=O)O)NC(=O)[C@H](CCCNC(=N)N)NC(=O)[C@H](CCC(N)=O)NC(=O)[C@H](CCCCN)NC(=O)[C@H](CCCCN)NC(=O)[C@H](CCC(N)=O)NC(=O)[C@H](CCCCN)NC(=O)[C@H](CCC(=O)O)NC(=O)[C@H](CCC(N)=O)NC(=O)[C@H](CCC(=O)O)NC(=O)[C@H](CC(C)C)NC(=O)[C@H](CC(C)C)NC(=O)[C@@H](NC(=O)[C@H](CCCCN)NC(=O)[C@H](CCCCNC(=O)CC[C@H](NC(=O)CCCCCCCCCCCCCCC(=O)O)C(=O)O)NC(=O)[C@H](CC(C)C)NC(=O)[C@H](CCCCN)NC(=O)[C@@H](NC(=O)[C@@H]1CCCN1C(=O)[C@H](NC(=O)[C@H](CC(=O)O)NC(=O)[C@H](CC(C)C)NC(=O)[C@H](CO)NC(=O)[C@H](CC(C)C)NC(=O)[C@@H](N)C(C)C)C(C)C)[C@@H](C)CC)[C@@H](C)CC)[C@@H](C)O)C(=O)N[C@@H](CC(C)C)C(=O)N[C@@H](C)C(=O)N[C@@H](CCC(N)=O)C(=O)N[C@H](C(N)=O)C(C)C [compound 34] (H-VLSLD[dV]PIKLK([γGlu-C16 diacid])KILLEQEKQKKQREQAETNKQILAQV-NH2)
Human CRF2a receptor
  EC50: 1.61 nM
CFR1R receptor
  Emax (% I): 0 % I
  EC50: > 250 nM
[1]
  Buffer stability pH 4.5 % purity loss: 0%
  Buffer stability pH 7.4 % purity loss: 4.5%
